# Assay results from patent publication US9593305B2, “Differentiation of pluripotent stem cells” (Janssen Biotech, Inc., priority 2008, dated 2017).
# Test system: H1 human embryonic stem cells
# Assay: Secondary screening with EGF/FGF4 in the absence of activin A (Example 4)
# Format: cell-based
# Conditions: 2.5 μM compound + 50 ng/ml EGF + 50 ng/ml FGF4, Wnt3a, no activin A, four days
# Procedure: Clusters of H1 human embryonic stem cells were grown on reduced growth factor […]™ (Invitrogen; Cat #356231)-coated tissue culture plastic. Cells were passaged using collagenase (Invitrogen; Cat #Cat #17104-019) treatment and gentle scraping, washed to remove residual enzyme, and plated with even dispersal at a ratio of 1:1 (surface area) on reduced growth factor […]™-coated 96-well black plates (Packard ViewPlates; PerkinElmer; Cat #6005182) using volumes of 100 μl/well. Cells were allowed to attach as clusters and then recover log phase growth over a 1 to 3 day period, feeding daily with MEF conditioned medium supplemented with 8 ng/ml bFGF (R&D Systems; Cat #233-FB). Plates were maintained at 37° C., 5% CO2 in a humidified box throughout the duration of assay.
# Stock concentrations for EGF (R&D Systems; Cat #236-EG) and FGF4 (R&D Systems; Cat #235-F4) were 250 ng/ml, each solubilized in PBS with 0.1% BSA (Sigma; Cat #A7888). Compounds were available as 5 mM stocks in 96-well plate format, solubilized in 100% DMSO (Sigma; Cat #D2650) and stored at −80° C. The compounds were further diluted to an intermediate concentration of 0.2 mM in 50 mM HEPES (Invitrogen; Cat #15630-080), 20% DMSO and stored at 4° C. All growth factors and inhibitors were prepared in a deep well, 96-well polypropylene plate, diluted to 5× intermediate stocks in DMEM:F12 base medium at the beginning of assay and stored at 4° C.
# A secondary screening assay was conducted, testing in triplicate and feeding on alternate days over the four-day assay timeframe. Assays were initiated by aspirating culture medium from each well followed by three washes in PBS to remove residual growth factors and serum. Test volumes of 80 μl per well were added back containing DMEM:F12 base medium (Invitrogen; Cat #11330-032) supplemented with 0.625% FCS (HyClone; Cat #SH30070.03), 25 ng/ml Wnt3a (R&D Systems), and 3.125 μM compound plus 20 μl 5× stock of growth factors to yield a final concentration of 0.5% FCS, 20 ng/ml Wnt3a, and 2.5 μM compound plus 50 ng/ml EGF and 50 ng/ml FGF4 in the assay. Positive control wells (100 μl/well) contained the same base medium supplemented with 0.5% FCS, 20 ng/ml Wnt3a and 100 ng/ml activin A. Negative control wells (100 μl/well) contained the same base medium with 0.5% FCS and 20 ng/ml Wnt3a, omitting activin A.
# On day 3, wells were aspirated and fed with 80 μl DMEM:F12 base medium supplemented with 2.5% FCS (HyClone) and 3.125 μM compound plus […] 5× stock of growth factors per well to yield a final concentration of 2% FCS and 2.5 μM compound (omitting Wnt3a) plus 50 ng/ml EGF and FGF4 in the assay. Positive control wells (100 μl/well) contained the same base medium supplemented with 2% FCS and 100 ng/ml activin A, omitting Wnt3a. Negative control wells (100 μl/well) contained the same base medium with 2% FCS, omitting both activin A and Wnt3a.
# At the conclusion of four-days of culture, assay plates were washed twice with PBS, fixed with 4% paraformaldehyde (Alexis Biochemical; Cat #ALX-350-011) at room temperature for 20 minutes, then washed three times with PBS and permeabilized with 0.5% Triton X-100 (Sigma; Cat #T8760-2) for 20 minutes at room temperature. Cells were washed again three times with PBS and blocked with 4% chicken serum (Invitrogen; Cat 16110082) in PBS for 30 minutes at room temperature. Primary antibody (goat anti-human SOX17; R&D Systems; cat #AF1924) was diluted 1:100 in 4% chicken serum and added to each well for one hour at room temperature. Alexa Fluor 488 conjugated secondary antibody (chicken anti-goat IgG; Molecular Probes; Cat #AZ1467) was diluted 1:200 in PBS and added to each sample well after washing three times with PBS. To counterstain nuclei, 4 μg/ml Hoechst 33342 (Invitrogen; Cat #H3570) was added for ten minutes at room temperature. Plates were washed once with PBS and left in 100 μl/well PBS for imaging. […]
Structure (SMILES),Cell Number: % of positive control,Cell Number: Average Total Cell Number,Sox17 Expression: % of positive control,Sox17 Expression: Average Total Intensity
"CN1CCC(=O)NCCCNc2ncccc2-c2ncnc(n2)Nc2cccc(c2)C1 [Compound 39, 9-Methyl-2,3,4,5,7,8,9,10-octahydro-16H-17,21-(azeno)-11,15-(metheno)pyrido[3,2-g][1,3,5,9,13,17]hexaazacyclotricosin-6(1H)-one]",91.28 % of positive control,17095,15.19 % of positive control,2.82E+07
"CCN1CCCc2cccc(c2)-c2ncnc(n2)Nc2cccc(c2)CCNC(=O)C1 [Compound 29, 18-Ethyl-3,5,7,15,18,28-hexaazatetracyclo[20.3.1.1˜2,6˜0.1˜8,12˜]octacosa-1(26), 2(28), 3,5,8(27), 9,11,22,24-nonaen-16-one]",107.97 % of positive control,20221,15.27 % of positive control,2.83E+07
"O=C1CCN2CCN(CC2)Cc2cc(Cl)cc(c2)Nc2ncnc(n2)-c2cncc(c2)CCCN1 [Compound 34, 5-Chloro-1,8,10,12,16,22,26,32-octaazapentacyclo[24.2.2.1˜3.7˜0.1˜9,13˜0.1˜14.18˜]tritriaconta-3(33), 4,6,9(32), 10,12,14(31), 15,17-nonaen-23-one]",100.87 % of positive control,18891,17.55 % of positive control,3.26E+07
"O=C1NCCCc2cncc(c2)-c2ncnc(n2)Nc2cccc(c2)CN2CCCC1C2 (centres unmarked) [Compound 17, 3,5,7,14,20,26,31-Heptaazapentacyclo[22.3.1.1-2,6˜1˜8,12˜1˜14,18˜]hentriaconta-1(28), 2(31), 3,5,8(30), 9,11,24,26-nonaen-19-one]",114.51 % of positive control,21445,18.48 % of positive control,3.43E+07
"O=C1NCCCc2cncc(c2)-c2ncnc(n2)Nc2cc(Cl)cc(c2)CN2CCCC1C2 (centres unmarked) [Compound 37, 10-Chloro-3,5,7,14,20,26,31-heptaazapentacyclo[22.3.1.1˜2,6˜0.1˜8,12˜0.1˜14,18˜]hentriaconta-1(28), 2(31), 3,5,8(30), 9,11,24,26-nonaen-19-one]",83.32 % of positive control,15605,14.37 % of positive control,2.67E+07
"O=C1NCCCc2cncc(c2)-c2ncnc(n2)Nc2cccc(c2)CN2CCC1CC2 [Compound 22, 1,8,10,12,16,22,30-Heptaazapentacyclo[22.2.2.1-3,7˜0.1˜9,13˜1-14,18˜]hentriaconta-3(31), 4,6,9(30), 10,12,14(29), 15,17-nonaen-23-one]",97.91 % of positive control,18336,20.05 % of positive control,3.72E+07

# Same assay, conditions: Table 3B most potent compounds, with EGF + FGF4, no activin A
Structure (SMILES),"Cell Number, % of positive control",Sox17 Intensity % of positive control
"CCN1CC(=O)NCCCc2cncc(c2)-c2ncnc(n2)Nc2cc(Cl)cc(c2)C1 [Compound 35, 10-Chloro-14-ethyl-3,5,7,14,17,23,27-heptaazatetracyclo[19.3.1.1˜2,6˜0.1˜8,12]Theptacosa-1(25), 2(27), 3,5,8(26), 9,11,21,23-nonaen-16-one]",127.20 % of positive control,13.69 % of positive control
